The text below walks through data of BindingDB's records for doi:10.3109/14756366.2010.518965 (Guangzhou Institutes of Biomedicine and Health, Chinese …, 2011).

Counter-ions that a name gives are not always drawn. A value given as a limit tells only on which side of the number the result lay.

Holding throughout (experiment): UDP-glucuronosyltransferase Activity Assay
Experiment [1] addresses T1, UDP-glucuronosyltransferase 2B7 (Homo sapiens, UniProt P16662).
T1 sequence (P16662 whole entry): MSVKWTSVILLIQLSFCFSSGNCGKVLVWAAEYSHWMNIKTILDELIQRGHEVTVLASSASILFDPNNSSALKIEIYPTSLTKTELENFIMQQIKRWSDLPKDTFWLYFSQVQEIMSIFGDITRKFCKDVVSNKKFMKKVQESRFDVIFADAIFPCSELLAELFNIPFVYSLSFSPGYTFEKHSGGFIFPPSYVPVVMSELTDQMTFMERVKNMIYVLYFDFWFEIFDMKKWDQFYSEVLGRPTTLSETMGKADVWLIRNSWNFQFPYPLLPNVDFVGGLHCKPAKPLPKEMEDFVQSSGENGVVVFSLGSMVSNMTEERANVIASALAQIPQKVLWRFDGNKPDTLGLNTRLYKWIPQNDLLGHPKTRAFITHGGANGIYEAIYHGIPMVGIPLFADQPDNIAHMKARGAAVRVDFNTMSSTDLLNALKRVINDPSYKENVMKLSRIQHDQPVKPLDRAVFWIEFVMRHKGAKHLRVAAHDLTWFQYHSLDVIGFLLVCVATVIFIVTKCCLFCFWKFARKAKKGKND

In experiment [2] the target is T2, UDP-glucuronosyltransferase 1A1 (Homo sapiens, UniProt P22309).
T2 sequence (P22309 whole entry): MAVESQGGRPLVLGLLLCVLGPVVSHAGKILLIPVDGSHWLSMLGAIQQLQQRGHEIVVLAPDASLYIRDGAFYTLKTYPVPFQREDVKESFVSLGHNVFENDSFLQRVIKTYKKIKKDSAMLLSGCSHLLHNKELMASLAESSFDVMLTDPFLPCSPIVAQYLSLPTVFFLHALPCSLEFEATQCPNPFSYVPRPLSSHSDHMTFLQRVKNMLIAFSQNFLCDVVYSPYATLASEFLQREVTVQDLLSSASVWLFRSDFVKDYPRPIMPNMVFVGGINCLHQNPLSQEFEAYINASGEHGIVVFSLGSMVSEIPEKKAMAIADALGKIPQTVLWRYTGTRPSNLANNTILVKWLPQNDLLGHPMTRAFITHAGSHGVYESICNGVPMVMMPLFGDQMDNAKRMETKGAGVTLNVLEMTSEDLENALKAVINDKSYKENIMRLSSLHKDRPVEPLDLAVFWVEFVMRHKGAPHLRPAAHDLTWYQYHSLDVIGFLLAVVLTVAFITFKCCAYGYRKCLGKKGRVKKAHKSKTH

Experiment [3] concerns the target T3, UDP-glucuronosyltransferase 2B10 (Homo sapiens, UniProt P36537).
T3 sequence (P36537 whole entry): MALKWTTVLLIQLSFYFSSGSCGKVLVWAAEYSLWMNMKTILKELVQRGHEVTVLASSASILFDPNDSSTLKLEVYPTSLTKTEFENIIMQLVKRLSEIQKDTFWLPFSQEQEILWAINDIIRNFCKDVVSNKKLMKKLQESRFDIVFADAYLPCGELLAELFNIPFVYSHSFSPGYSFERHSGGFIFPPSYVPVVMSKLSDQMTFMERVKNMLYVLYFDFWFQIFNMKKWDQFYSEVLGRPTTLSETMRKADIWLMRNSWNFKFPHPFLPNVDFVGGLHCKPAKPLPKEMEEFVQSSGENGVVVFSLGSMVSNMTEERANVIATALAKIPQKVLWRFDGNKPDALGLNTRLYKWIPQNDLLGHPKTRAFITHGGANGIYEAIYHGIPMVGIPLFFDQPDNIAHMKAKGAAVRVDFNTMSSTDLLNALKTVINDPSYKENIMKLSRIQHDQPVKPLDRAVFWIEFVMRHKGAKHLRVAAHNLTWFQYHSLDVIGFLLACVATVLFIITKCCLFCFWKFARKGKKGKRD

For experiment [4], the target named is T4, UDP-glucuronosyltransferase 1A4 (Homo sapiens, UniProt P22310).
T4 sequence (P22310 whole entry): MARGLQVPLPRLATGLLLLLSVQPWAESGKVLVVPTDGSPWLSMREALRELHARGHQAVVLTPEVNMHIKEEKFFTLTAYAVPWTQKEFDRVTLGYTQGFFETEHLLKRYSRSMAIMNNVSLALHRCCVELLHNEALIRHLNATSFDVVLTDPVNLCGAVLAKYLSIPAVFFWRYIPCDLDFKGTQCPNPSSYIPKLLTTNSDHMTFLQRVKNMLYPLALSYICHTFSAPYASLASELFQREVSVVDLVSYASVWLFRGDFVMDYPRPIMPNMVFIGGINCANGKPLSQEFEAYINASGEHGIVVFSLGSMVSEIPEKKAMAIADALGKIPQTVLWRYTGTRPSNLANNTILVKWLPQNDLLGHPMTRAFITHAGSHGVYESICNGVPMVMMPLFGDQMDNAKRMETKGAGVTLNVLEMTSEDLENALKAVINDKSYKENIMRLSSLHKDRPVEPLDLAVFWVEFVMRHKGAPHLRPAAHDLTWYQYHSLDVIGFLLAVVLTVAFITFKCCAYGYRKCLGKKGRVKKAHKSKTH

Experiment [5] deals with T5, UDP-glucuronosyltransferase 1-6 (Homo sapiens, UniProt P19224).
T5 sequence (P19224 whole entry): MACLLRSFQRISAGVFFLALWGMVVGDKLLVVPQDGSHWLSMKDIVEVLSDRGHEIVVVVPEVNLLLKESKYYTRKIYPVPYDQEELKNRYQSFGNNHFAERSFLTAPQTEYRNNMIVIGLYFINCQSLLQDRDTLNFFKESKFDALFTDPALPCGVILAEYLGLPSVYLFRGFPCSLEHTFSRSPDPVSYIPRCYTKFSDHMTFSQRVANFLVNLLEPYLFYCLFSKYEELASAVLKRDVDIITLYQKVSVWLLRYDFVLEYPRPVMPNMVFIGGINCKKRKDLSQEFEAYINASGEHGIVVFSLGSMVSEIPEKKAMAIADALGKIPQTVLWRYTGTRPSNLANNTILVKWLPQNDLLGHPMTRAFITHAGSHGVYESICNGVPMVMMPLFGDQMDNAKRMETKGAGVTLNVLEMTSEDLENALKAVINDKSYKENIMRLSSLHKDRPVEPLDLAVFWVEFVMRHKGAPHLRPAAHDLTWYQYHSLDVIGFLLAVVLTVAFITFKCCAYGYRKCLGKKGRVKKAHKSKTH

The term IC50 denotes the concentration that gives 50% inhibition. A higher IC50 goes with lower potency.

For the compound `CC(=O)O[C@H]1C(=O)[C@@]2(C)[C@H]([C@H](OC(=O)c3ccccc3)[C@]3(O)C[C@H](OC(=O)[C@H](O)[C@@H](NC(=O)c4ccccc4)c4ccccc4)C(C)=C1C3(C)C)[C@]1(OC(C)=O)CO[C@@H]1C[C@@H]2O`, the IC50 in experiment [1] is above 300 µM; in experiment [2] it was 20 µM; in experiment [3], above 300 µM; in experiment [4] it was 4.9 µM; in experiment [5], 74 µM.

Take `O=c1cc(-c2ccccc2)oc2c1ccc1ccccc12`: the IC50 in experiment [1] was 149 µM; in experiment [2] it was 38 µM; in experiment [3], above 300 µM; in experiment [4], 23 µM; in experiment [5], 67 µM.

Turning to `Nc1ccc(S(=O)(=O)Nc2ccnn2-c2ccccc2)cc1`, the IC50 in experiment [1], in experiment [2], in experiment [3], in experiment [4] and in experiment [5] was above 300 µM in each case.

As for `CCCCNC(=O)NS(=O)(=O)c1ccc(C)cc1` [1-Butyl-3-(p-methylphenylsulfonyl)urea], the IC50 in experiment [1] was above 300 µM; in experiment [2], above 300 µM; in experiment [3], above 300 µM; in experiment [4] it was above 300 µM; in experiment [5], 281 µM.

As for `O=c1ccc2ccccc2o1` [2H-chromen-2-one], the IC50 in experiment [1], in experiment [2], in experiment [3], in experiment [4] and in experiment [5] was above 300 µM in each case.

For `Cc1ncc2n1-c1ccc(Cl)cc1C(c1ccccc1F)=NC2` [12-chloro-9-(2-fluorophenyl)-3-methyl-2,4,8-triazatricyclo[8.4.0.0^{2,6}]tetradeca-1(10),3,5,8,11,13-hexaene], the IC50 in experiment [1] was found to be 147 µM; in experiment [2], 26 µM; in experiment [3], 106 µM; in experiment [5] it was 23 µM.

As to `CC[C@@]1(c2ccccc2)NC(=O)N(C)C1=O` [(5S)-5-Ethyl-3-methyl-5-phenyl-2,4-imidazolidinedione], the IC50 in experiment [1], in experiment [2], in experiment [3], in experiment [4] and in experiment [5] was above 300 µM each time.

Regarding `C=C[C@H]1C[N@@]2CC[C@H]1C[C@@H]2[C@@H](O)c1ccnc2ccc(OC)cc12` [(6-Methoxy-quinolin-4-yl)-(5-vinyl-1-aza-bicyclo[2.2.2]oct-2-yl)-methanol], the IC50 was above 300 µM in experiment [1]; above 300 µM in experiment [2]; above 300 µM in experiment [3]; 166 µM in experiment [4]; above 300 µM in experiment [5].

As to `CCOc1ccc(NC(C)=O)cc1` [ACETPHENETIDIN], the IC50 in experiment [1], in experiment [2], in experiment [3], in experiment [4] and in experiment [5] was above 300 µM each time.

Take `CC(NC(C)(C)C)C(=O)c1cccc(Cl)c1` (stereo not given) [BUPROPION HYDROCHLORIDE]: the IC50 was above 300 µM in experiment [1]; above 300 µM in experiment [2]; 88 µM in experiment [3]; 152 µM in experiment [4]; above 300 µM in experiment [5].

On to `Cc1ncsc1CCCl` [Chlormethiazole], for which the IC50 in experiment [1], in experiment [2], in experiment [3], in experiment [4] and in experiment [5] was above 300 µM throughout.

In the case of `COc1ccc2c(c1)[C@@]13CCCC[C@@H]1[C@@H](C2)N(C)CC3` [Dextromethorphan], the IC50 in experiment [1] was above 300 µM; in experiment [2], above 300 µM; in experiment [3] it was 62 µM; in experiment [4] it was 89 µM; in experiment [5], above 300 µM.

Take `COc1ccc2[nH]c([S+]([O-])Cc3ncc(C)c(OC)c3C)nc2c1` (stereo not given) [H-168/68]: the IC50 in experiment [1] was above 300 µM; in experiment [2], 56 µM; in experiment [3] it was above 300 µM; in experiment [4], above 300 µM; in experiment [5], 185 µM.

For the compound `CC(=O)N1CCN(c2ccc(OC[C@@H]3CO[C@@](Cn4ccnc4)(c4ccc(Cl)cc4Cl)O3)cc2)CC1` [Nizoral], the IC50 is 60 µM in experiment [1]; 4.1 µM in experiment [2]; 22 µM in experiment [3]; 58 µM in experiment [4]; 19 µM in experiment [5].

For `CO[C@H]1C[C@H](O[C@H]2[C@H](C)[C@@H](O[C@@H]3O[C@H](C)C[C@H](N(C)C)[C@H]3O)[C@@H](C)C[C@@]3(CO3)C(=O)[C@H](C)[C@@H](O)[C@@H](C)[C@@H](C)OC(=O)[C@@H]2C)O[C@@H](C)[C@@H]1O` [Oleandomycin], the IC50 in experiment [1] was 272 µM; in experiment [2] it was 44 µM; in experiment [3], above 300 µM; in experiment [4], 59 µM; in experiment [5] it was above 300 µM.

Regarding `C[C@]12CC[C@H]3[C@@H](CCC4=CC(=O)CC[C@@]43C)[C@@H]1CC[C@@H]2O` [Testosterone, 1], the half-inhibitory concentration (IC50) was 165 µM in experiment [1], 43 µM in experiment [2], above 300 µM in experiment [3] and above 300 µM in experiment [5].

`Cc1nc2c([nH]1)c(=O)n(C)c(=O)n2Cc1ccco1` [furafylline]: the IC50 in experiment [1], in experiment [2], in experiment [3], in experiment [4] and in experiment [5] was above 300 µM in each case.

As for `O=C(O)Cc1ccccc1Nc1c(Cl)cccc1Cl` [{2-[(2,6-dichlorophenyl)amino]phenyl}acetic acid], the results for the IC50 in experiment [2] and in experiment [4] were 155 µM and 192 µM, respectively.
